Measurements reported in ChEMBL document CHEMBL1158627, “Non-basic ligands for aminergic GPCRs: the discovery and development diaryl sulfones as selective, orally bioavailable 5-HT2A receptor antagonists for the treatment of sleep disorders” (Bioorg Med Chem Lett, 2010).
Calls of active or inactive are those of the source. The rule behind the calls is not given here.

Columns and labels:
[1] = molecular target: Voltage-gated inwardly rectifying potassium channel KCNH2 (Homo sapiens, UniProt Q12809); test: Displacement of [3H]-dofetilide from human ERG receptor expressed HEK cells
[2] = molecular target: T1, 5-hydroxytryptamine receptor 2C (Homo sapiens, UniProt P28335); test: biochemical
T1 sequence (P28335 whole entry): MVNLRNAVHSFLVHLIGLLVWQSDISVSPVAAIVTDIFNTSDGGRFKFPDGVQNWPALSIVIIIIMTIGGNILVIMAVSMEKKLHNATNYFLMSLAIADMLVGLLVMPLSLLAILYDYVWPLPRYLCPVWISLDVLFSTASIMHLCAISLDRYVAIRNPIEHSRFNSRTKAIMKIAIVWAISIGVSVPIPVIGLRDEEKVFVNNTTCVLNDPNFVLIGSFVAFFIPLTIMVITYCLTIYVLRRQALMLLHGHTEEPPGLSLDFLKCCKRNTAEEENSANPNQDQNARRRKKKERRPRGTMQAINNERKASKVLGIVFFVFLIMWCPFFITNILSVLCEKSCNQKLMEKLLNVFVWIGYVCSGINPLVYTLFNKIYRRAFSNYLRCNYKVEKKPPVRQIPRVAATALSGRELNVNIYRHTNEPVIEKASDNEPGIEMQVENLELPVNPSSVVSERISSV
Description: Displacement of [3H]mesulergine from human 5HT2C receptor expressed CHO cells

[3] = molecular target: 5-hydroxytryptamine receptor 2A (Homo sapiens, UniProt P28223); test: biochemical
Description: Displacement of [3H]- ketanserin from human 5HT2A receptor expressed CHO cells

Rattus norvegicus [4] = test: Ex vivo receptor occupancy of 5HT2A receptor in rat brain at 10 mg/kg, po after 0.5 hrs; type: functional
[5] = Drug level in rat brain at 5 mg/kg, po administered with methocel suspension by electrospray mass spectrometry; type: ADME, organism-based; set-up: dose 5 mg/kg, route oral
[6] = Drug level in rat cardiac plasma at 5 mg/kg, po administered with methocel suspension by electrospray mass spectrometry; type: ADME, organism-based; set-up: dose 5 mg/kg, route oral
[7] = Drug level in rat hepatic portal vein plasma at 5 mg/kg, po administered with methocel suspension by electrospray mass spectrometry; type: ADME, organism-based; set-up: dose 5 mg/kg, route oral
[8] = Drug level in rat cardiac plasma at 5 mg/kg, po administered with imwittor/tween by electrospray mass spectrometry; type: ADME, organism-based; set-up: dose 5 mg/kg, route oral
[9] = Drug level in rat hepatic portal vein plasma at 5 mg/kg, po administered with imwittor/tween by electrospray mass spectrometry; type: ADME, organism-based; set-up: dose 5 mg/kg, route oral
[10] = Metabolic stability in human liver microsomes assessed as compound turnover after 0.25 hrs by LC/MS/MS analysis; set-up: dose or concentration left out as unconfirmed
[11] = Drug level in rat brain at 5 mg/kg, po administered with imwittor/tween by electrospray mass spectrometry; type: ADME, organism-based; set-up: dose 5 mg/kg, route oral
Rattus norvegicus [12] = test: Ex vivo receptor occupancy of 5HT2A receptor in rat brain at 5 mg/kg, po after 0.5 hrs; type: functional
[13] = Plasma concentration in rat at 10 mg/kg, po after 0.5 hrs; type: ADME, organism-based; set-up: dose 10 mg/kg, route oral
[14] = Drug level in rat brain at 10 mg/kg, po after 0.5 hrs; type: ADME, organism-based; set-up: dose 10 mg/kg, route oral; settings: read-out: Drug uptake
Rattus norvegicus [15] = test: Inhibition of ex vivo receptor occupancy of 5HT2A receptor in rat brain at 10 mg/kg, po after 0.5 hrs; type: functional
[16] = Plasma clearance in rhesus monkey at 0.1 mg/kg, iv and 1 mg/kg, po; type: ADME, organism-based, Macaca mulatta
[17] = Half life in Sprague-Dawley rat at 0.1 mg/kg, iv and 1 mg/kg, po; type: ADME, organism-based; settings: in vivo
[18] = Metabolic stability in rat liver microsomes assessed as compound remaining […] after 0.25 hrs by LC/MS/MS analysis; type: ADME, Microsome; settings: read-out: Stability
[19] = Metabolic stability in dog liver microsomes assessed as compound remaining […] after 0.25 hrs by LC/MS/MS analysis; type: ADME, Canis lupus familiaris, Microsome; settings: read-out: Stability
[20] = Half life in dog at 0.1 mg/kg, iv and 1 mg/kg, po; type: ADME, organism-based, Canis lupus familiaris; settings: in vivo
[21] = Metabolic stability in rhesus monkey liver microsomes assessed as compound remaining […] after 0.25 hrs by LC/MS/MS analysis; type: ADME, Macaca mulatta, Microsome; settings: read-out: Stability
[22] = Half life in rhesus monkey at 0.1 mg/kg, iv and 1 mg/kg, po; type: ADME, organism-based, Macaca mulatta; settings: in vivo
[23] = Plasma clearance in Sprague-Dawley rat at 0.1 mg/kg, iv and 1 mg/kg, po; type: ADME, organism-based
[24] = Plasma clearance in dog at 0.1 mg/kg, iv and 1 mg/kg, po; type: ADME, organism-based, Canis lupus familiaris
[25] = Bioavailability in rhesus monkey; type: ADME, organism-based, Macaca mulatta; settings: in vivo
[26] = Volume of distribution at steady state in Sprague-Dawley rat at 0.1 mg/kg, iv and 1 mg/kg, po; type: ADME, organism-based; settings: in vivo, read-out: Vdss
[27] = Chemical stability in acetonitrile/water at pH 1 to 10 after 5 days; type: physicochemical; settings: pH 1, 120 h
[28] = Induction of cytochrome P450 activity at 10 uM; type: ADME
Rattus norvegicus [29] = test: Sedative activity in rat assessed effect on time spent on rapid eye movement sleep at 3 mg/kg, po after 15 hrs; type: ADME, organism-based; set-up: dose 3 mg/kg, route oral; settings: in vivo
Rattus norvegicus [30] = test: Ex vivo receptor occupancy of 5HT2A receptor in rat brain at <1 mg/kg, po after 2 hrs; type: functional
Rattus norvegicus [31] = test: Ex vivo receptor occupancy of 5HT2A receptor in rat brain at 1 mg/kg, po after 0.5 hrs; type: functional
[32] = Bioavailability in rat; type: ADME, organism-based; settings: in vivo
Rattus norvegicus [33] = test: Ex vivo receptor occupancy of 5HT2A receptor in rat brain at 3 mg/kg, po after 2 hrs; type: functional, organism-based; set-up: dose 3 mg/kg
Canis familiaris [34] = test: Cardiotoxicity in dog assessed as increase of QT interval up to 10 mg/kg, iv; type: toxicity, organism-based, Canis lupus familiaris; set-up: dose 10 mg/kg, route intravenous; settings: in vivo
Canis familiaris [35] = test: Cardiotoxicity in dog assessed as increase of heart rate up to 10 mg/kg, iv; type: toxicity, organism-based, Canis lupus familiaris; set-up: dose 10 mg/kg, route intravenous; settings: in vivo
Rattus norvegicus [36] = test: Increase of slow wave sleep in rat at 3 mg/kg, po after 15 hrs by EEG recordings; type: functional, organism-based; set-up: dose 3 mg/kg
[37] = Inhibition of cytochrome P450 at > 30 uM; type: ADME
[38] = Bioavailability in dog; type: ADME, organism-based, Canis lupus familiaris; settings: in vivo
Rhesus monkey = test: Plasma concentration in rhesus monkey; type: ADME, organism-based, Macaca mulatta; settings: in vivo
[39] = Stability after 5 days; type: physicochemical; settings: 120 h
Rattus norvegicus [40] = test: Decrease of number of awakenings in rat at 3 mg/kg, po after 15 hrs by EMG recordings; type: functional, organism-based; set-up: dose 3 mg/kg
[41] = Plasma concentration in rat at <1 mg/kg, po after 2 hrs; type: ADME, organism-based
Mus musculus = test: Phototoxicity in mouse assessed as formation of erythema at 10 to 2000 mg/kg, po; type: organism-based; set-up: dose 10-2000 mg/kg, route oral; settings: in vivo
Rattus norvegicus [42] = test: Sedative activity in rat assessed effect on sleep onset at 3 mg/kg, po after 15 hrs; type: ADME, organism-based; set-up: dose 3 mg/kg, route oral; settings: in vivo
[43] = Inhibition of CYP1A at 4.8 uM; type: ADME
[44] = molecular target: Cytochrome P450 2C9 (Homo sapiens) (UniProt P11712); test: Inhibition of CYP2C9 at 6 uM
[45] = molecular target: Cytochrome P450 2C9 (Homo sapiens) (UniProt P11712); test: Inhibition of CYP2C9

Voltage-gated inwardly rectifying potassium channel KCNH2, sequence (Q12809 whole entry): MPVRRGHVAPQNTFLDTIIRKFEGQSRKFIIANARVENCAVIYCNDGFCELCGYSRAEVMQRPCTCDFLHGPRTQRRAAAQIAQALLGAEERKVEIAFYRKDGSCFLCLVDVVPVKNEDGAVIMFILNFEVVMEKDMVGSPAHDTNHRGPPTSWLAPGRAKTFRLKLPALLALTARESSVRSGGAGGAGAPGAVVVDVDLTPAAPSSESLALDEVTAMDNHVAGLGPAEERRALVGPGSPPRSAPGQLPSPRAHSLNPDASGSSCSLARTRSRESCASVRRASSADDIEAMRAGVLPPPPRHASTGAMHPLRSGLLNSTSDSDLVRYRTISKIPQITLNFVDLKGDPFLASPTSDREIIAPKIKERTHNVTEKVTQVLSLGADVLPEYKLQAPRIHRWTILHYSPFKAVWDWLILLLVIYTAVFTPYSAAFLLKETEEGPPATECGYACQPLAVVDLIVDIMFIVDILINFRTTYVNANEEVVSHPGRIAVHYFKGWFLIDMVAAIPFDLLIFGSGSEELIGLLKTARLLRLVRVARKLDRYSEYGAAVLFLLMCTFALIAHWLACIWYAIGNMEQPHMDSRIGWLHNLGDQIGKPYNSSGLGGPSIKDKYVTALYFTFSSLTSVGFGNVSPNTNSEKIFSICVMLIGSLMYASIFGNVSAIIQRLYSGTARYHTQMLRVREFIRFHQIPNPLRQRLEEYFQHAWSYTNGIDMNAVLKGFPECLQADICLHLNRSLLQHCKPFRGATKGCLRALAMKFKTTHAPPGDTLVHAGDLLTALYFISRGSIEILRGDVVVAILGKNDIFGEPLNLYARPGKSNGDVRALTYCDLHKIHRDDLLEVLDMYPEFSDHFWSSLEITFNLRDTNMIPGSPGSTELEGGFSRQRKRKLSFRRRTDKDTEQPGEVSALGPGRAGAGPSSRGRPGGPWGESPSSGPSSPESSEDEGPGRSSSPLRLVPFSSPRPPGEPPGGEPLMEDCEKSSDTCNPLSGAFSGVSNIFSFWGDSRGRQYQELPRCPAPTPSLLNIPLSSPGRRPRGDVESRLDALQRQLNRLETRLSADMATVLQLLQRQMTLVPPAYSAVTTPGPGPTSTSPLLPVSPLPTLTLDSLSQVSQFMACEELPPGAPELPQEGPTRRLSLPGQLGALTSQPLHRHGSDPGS
5-hydroxytryptamine receptor 2A, sequence (P28223 whole entry): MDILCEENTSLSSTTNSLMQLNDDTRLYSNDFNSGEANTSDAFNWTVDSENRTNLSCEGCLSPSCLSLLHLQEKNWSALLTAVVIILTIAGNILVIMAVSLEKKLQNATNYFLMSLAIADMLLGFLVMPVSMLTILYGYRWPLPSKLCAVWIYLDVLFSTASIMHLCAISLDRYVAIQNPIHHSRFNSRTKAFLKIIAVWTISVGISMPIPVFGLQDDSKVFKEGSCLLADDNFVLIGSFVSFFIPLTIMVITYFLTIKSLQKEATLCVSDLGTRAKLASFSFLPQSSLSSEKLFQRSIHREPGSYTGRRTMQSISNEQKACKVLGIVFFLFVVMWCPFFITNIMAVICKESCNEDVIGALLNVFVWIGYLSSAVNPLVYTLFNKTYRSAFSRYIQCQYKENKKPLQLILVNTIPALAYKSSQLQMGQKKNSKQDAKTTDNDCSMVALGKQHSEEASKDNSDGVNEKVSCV
Cytochrome P450 2C9 (Homo sapiens), sequence (P11712 whole entry, looked up): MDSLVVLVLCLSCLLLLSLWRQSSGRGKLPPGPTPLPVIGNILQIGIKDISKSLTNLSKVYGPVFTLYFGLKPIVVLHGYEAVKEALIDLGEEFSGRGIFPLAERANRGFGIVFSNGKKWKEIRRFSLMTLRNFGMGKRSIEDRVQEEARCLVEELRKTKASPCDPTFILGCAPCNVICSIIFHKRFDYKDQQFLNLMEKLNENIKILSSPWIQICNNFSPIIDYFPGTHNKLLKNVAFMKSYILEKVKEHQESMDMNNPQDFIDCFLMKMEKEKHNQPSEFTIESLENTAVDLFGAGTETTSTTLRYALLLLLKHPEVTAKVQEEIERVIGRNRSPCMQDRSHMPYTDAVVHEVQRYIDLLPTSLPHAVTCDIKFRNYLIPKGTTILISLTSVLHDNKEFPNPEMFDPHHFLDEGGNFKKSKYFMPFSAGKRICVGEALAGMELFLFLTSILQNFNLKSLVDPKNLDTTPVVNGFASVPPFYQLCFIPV

`O=S(=O)(c1cccc2cccnc12)N1CCC(CCc2ccc(F)cc2F)CC1` showed a Ki [1] greater than 9000 nM, a Ki [2] of 184 nM and a Ki [3] of 2.1 nM.

For `O=S(=O)(c1ccccc1)c1ccc(/C=C/c2ccc(F)cc2F)cc1`, the Ki [1] was 4340 nM, the Ki [2] was 65 nM and the Activity (Rattus norvegicus [4]) was 40%. It also gave an AUC [5] of 0.38 µM·h, a Ki [3] of 1.32 nM and an AUC [6] of 0.09 µM·h. For the same compound, the AUC [7] was 0.46 µM·h, the AUC [8] was 0.79 µM·h and the AUC [9] was 6.39 µM·h. The turnover at 0.25 h [10] was 33% and the AUC [11] was 1.96 µM·h.

Work on `CC(O)c1ccccc1S(=O)(=O)c1ccc(/C=C/c2ccc(F)cc2)cc1` (racemic) yielded a Ki [1] of 4000 nM, a Ki [2] of 7 nM and an Activity (Rattus norvegicus [4]) of 85%. The Ki [3] was 0.07 nM, the turnover at 0.25 h [10] was less than 10% and the Activity (Rattus norvegicus [12]) was 99%.

`O=C(c1ccccc1F)N1CCC(CCc2ccc(F)cc2F)CC1` gave a Ki [1] greater than 9000 nM, a Ki [2] of 100 nM and an Activity (Rattus norvegicus [4]) of 40%. It also gave a turnover at 0.25 h [10] of 99%.

`NC(=O)c1cccc(S(=O)(=O)c2ccc(/C=C/c3ccc(F)cc3F)cc2)c1` showed a Ki [1] greater than 9000 nM, a Ki [2] of 21 nM and an Activity (Rattus norvegicus [4]) of 50%. It also gave a Ki [3] of 0.2 nM, a concentration at 0.5 h [13] of 40 nM and a concentration at 0.5 h [14] of 40 nM. The turnover at 0.25 h [10] was 3% and the inhibition in vivo at 10 mg/kg (Rattus norvegicus [15]) was 50%.

With `NC(=O)c1ccccc1S(=O)(=O)c1ccc(/C=C/c2ccc(F)cc2F)cc1` the clearance [16] was 0.13 mL/min/kg, the Ki [1] was greater than 9000 nM and the Ki [2] was 127 nM. The Activity (Rattus norvegicus [4]) was greater than 100%, the half-life [17] was 28 h and the Ki [3] was 0.65 nM. For the same compound, the remaining at 0.25 h [18] was 0%, the remaining at 0.25 h [19] was less than 10% and the half-life [20] was 134 h. For the same compound, the remaining at 0.25 h [21] was 23%, the concentration at 0.5 h [13] was 2730 nM and the half-life [22] was 85 h. It also gave a clearance [23] of 3 mL/min/kg, a concentration at 0.5 h [14] of 5770 nM and a turnover at 0.25 h [10] of 15.8%. The clearance [24] was 0.3 mL/min/kg and the inhibition in vivo at 10 mg/kg (Rattus norvegicus [15]) was 100%.

For `O=S(=O)(c1ccccc1)c1ccc(CCc2ccc(F)cc2F)cc1`, the Ki [1] was greater than 9000 nM, the Ki [2] was 526 nM and the Ki [3] was 1.43 nM. The turnover at 0.25 h [10] was 84%.

`C[C@H](O)c1ccccc1S(=O)(=O)c1ccc(/C=C/c2ccc(F)cc2)cc1` showed a clearance [16] of 32 mL/min/kg, a bioavailability [25] of 10% and a Ki [1] of 8250 nM. For the same compound, the Ki [2] was 47 nM, the half-life [17] was 3.8 h and the Vd [26] was 19 L/kg. The Stability [27] was “Stable”, the Ki [3] was 0.22 nM and the Activity [28] was 8%. The remaining at 0.25 h [18] was 50%, the remaining at 0.25 h [19] was 34% and the half-life [20] was 3.15 h. The remaining at 0.25 h [21] was 44%, the Activity (Rattus norvegicus [29]) was “Non-toxic” and the Activity (Rattus norvegicus [30]) was 80%. The Activity (Rattus norvegicus [31]) was 83%, the bioavailability [32] was 44% and the Activity (Rattus norvegicus [33]) was “Active”. The Activity (Canis familiaris [34]) was “Non-toxic”, the Activity (Canis familiaris [35]) was “Non-toxic” and the half-life [22] was 2.13 h. For the same compound, the Activity (Rattus norvegicus [36]) was “Active”, the clearance [23] was 95 mL/min/kg and the IC50 [37] was greater than 30000 nM. The bioavailability [38] was 45%, the concentration (Rhesus monkey) was 170 nM and the turnover at 0.25 h [10] was 45%. The Stability [39] was “Stable”, the Activity (Rattus norvegicus [40]) was “Active” and the concentration at 2 h [41] was 60 nM. The Activity (Mus musculus) was “Toxic”, the clearance [24] was 8 mL/min/kg and the Activity (Rattus norvegicus [42]) was “Non-toxic”. The IC50 [43] was 4800 nM and the INH [44] was 6 µM.

`O=S(=O)(c1ccc(/C=C/c2ccc(F)cc2)cc1)c1ccccc1CO` gave an IC50 [45] of 100 nM.

With `O=S(=O)(c1ccc(F)cc1)C1(F)CCN(CCc2ccc(F)cc2F)CC1` the Ki [2] was 69 nM and the Activity (Rattus norvegicus [4]) was 98%.

With `NC(=O)c1ccc(S(=O)(=O)c2ccc(/C=C/c3ccc(F)cc3F)cc2)cc1` the Ki [1] was 7920 nM, the Ki [2] was 41 nM and the Ki [3] was 0.65 nM. The concentration at 0.5 h [13] was 300 nM, the concentration at 0.5 h [14] was 620 nM and the turnover at 0.25 h [10] was 0%. The inhibition in vivo at 10 mg/kg (Rattus norvegicus [15]) was 53%.
